Counter-ions that a name gives are not always drawn. Where a SMILES comes first, the peptide text is derived from it. The star is where a group is joined. Tfa = O=C(C(F)(F)F)*
What follows are molecules tested against T1, LmjIPCS (inositol phosphorylceramide synthase from L. major) (Leishmania major, UniProt E9AFX2) (assay: biochemical). Conditions: not given.
T1 sequence (E9AFX2 1-338): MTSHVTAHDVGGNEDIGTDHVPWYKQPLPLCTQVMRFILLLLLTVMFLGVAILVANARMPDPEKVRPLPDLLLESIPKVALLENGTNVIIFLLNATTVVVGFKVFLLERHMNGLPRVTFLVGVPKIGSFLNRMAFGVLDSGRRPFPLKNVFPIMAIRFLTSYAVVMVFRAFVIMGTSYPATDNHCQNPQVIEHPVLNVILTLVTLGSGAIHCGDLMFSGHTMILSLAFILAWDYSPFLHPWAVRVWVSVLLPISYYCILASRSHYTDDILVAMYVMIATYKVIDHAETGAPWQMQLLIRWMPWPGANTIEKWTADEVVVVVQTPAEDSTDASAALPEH
Format: biochemical
Parameters: inhibition: dose or concentration left out as unconfirmed

Row | Compound | 20mM inhibition LmjIPCS [%]
1 | Nc1c2c(nc3ccccc13)CCCC2O.O=C(O)/C=C\C(=O)O (stereo not shown) [HYDROXYTACRINE MALEATE] | 11
2 | CC(=O)OCC[N+](C)(C)C [ACETYLCHOLINE] | 58
3 | FC(F)(F)c1cccc(N2CCNCC2)c1 | 54
4 | CC(C)(C)NCC(O)c1ccccc1Cl (stereo not shown) [TULOBUTEROL] | 51
5 | Cc1cccc(N(C)C(=S)Oc2ccc3ccccc3c2)c1 [TOLNAFTATE] | 62
6 | CN1CCOC(c2ccccc2)c2ccccc2C1 (stereo not shown) [NEFOPAM] | 68
7 | CCCCCCc1ccc(O)cc1O.Nc1c2ccccc2nc2ccccc12 [ACRISORCIN] | 30
8 | CN1CCN(C(c2ccccc2)c2ccccc2)CC1 [CYCLIZINE] | 58
9 | CCC(Cc1c(I)cc(I)c(N)c1I)C(=O)O (stereo not shown) [IOPANIC ACID] | 7.62
10 | c1ccc(CN(CC2=NCCN2)c2ccccc2)cc1 [ANTAZOLINE] | 61
11 | CNC(=O)Oc1ccc2c(c1)[C@]1(C)CCN(C)[C@@H]1N2C [ESERINE] | 9
12 | CN[C@@H](C)[C@H](O)c1ccccc1 [EPHEDRINE (1R,2S)] | 8
13 | Cc1scc2c1N(C(=O)CN1CCN(C)CC1)c1ccccc1NC2=O [TELENZEPINE] | 35
14 | CCCc1ncc(C[n+]2ccccc2C)c(N)n1 [AMPROLIUM] | 44
15 | Cc1ccsc1/C=C/C1=NCCCN1C [MORANTEL] | 60
16 | CC1(C)S[C@@H]2[C@H](NC(=O)[C@H](N)c3ccc(O)cc3)C(=O)N2[C@H]1C(=O)O [AMOXICILLIN] | 41
17 | CC1=C(O)C(=O)C=C2C1=CC=C1[C@@]2(C)CC[C@@]2(C)[C@@H]3C[C@](C)(C(=O)O)CC[C@]3(C)CC[C@]12C [CELASTROL] | 54
18 | NCC(CC(=O)O)c1ccc(Cl)cc1 (stereo not shown) [BACLOFEN] | 50
19 | CCN(CC)CCNc1ccc(CO)c2sc3ccccc3c(=O)c12 [HYCANTHONE] | 46
20 | CN1CCN(C2=Nc3ccccc3Oc3ccc(Cl)cc32)CC1 [LOXAPINE] | 68
21 | CC(N)C(=O)OC(C)(C)Cc1ccc(Cl)cc1 (stereo not shown) [ALAPROCLATE] | 36
22 | CCCCOc1cc(C(=O)NCCN(CC)CC)c2ccccc2n1 [DIBUCAINE] | 63

Same assay, conditions: NINDS set screen, single concentration printed as 20mM

Row | Compound | 20mM inhibition LmjIPCS [%]
23 | Cc1cc(C2CCCCC2)n(O)c(=O)c1 [CICLOPIROX OLAMINE] | 66
24 | C=C1c2c(Cl)ccc(O)c2C(=O)C2=C(O)[C@]3(O)C(=O)C(C(N)=O)=C(O)[C@@H](N(C)C)[C@@H]3[C@@H](O)[C@H]12 [MECLOCYCLINE] | 67
25 | Cc1cc2cc3c(C)cc(=O)oc3c(C)c2o1 [TRIOXSALEN] | 42

Same assay, conditions: NINDS set screen; read-out: inhibition LmjIPCS

Row | Compound | inhibition [%]
26 | [H]/N=C(\N/C(=N/[H])Nc1ccc(Cl)cc1)NC(C)C [CHLOROGUANIDE] | 28
27 | C#C[C@]1(O)CC[C@H]2[C@@H]3CCc4cc(O)ccc4[C@H]3CC[C@@]21C [ETHINYL ESTRADIOL] | -11
28 | O=C(c1ccccc1)c1ccc2n1CCC2C(=O)O (stereo not shown) [KETOROLAC] | 20
29 | NC(=O)c1cnccn1 [PYRAZINAMIDE] | -17
30 | NCC[C@H](O)C(=O)N[C@@H]1C[C@H](N)[C@@H](O[C@H]2O[C@H](CN)[C@@H](O)[C@H](O)[C@H]2O)[C@H](O)[C@H]1O[C@H]1O[C@H](CO)[C@@H](O)[C@H](N)[C@H]1O [AMIKACIN] | 21

Same assay, conditions: read-out: 20mM inhibition LmjIPCS

Row | Compound | inhibition at 20000 µM [%]
31 | CO[C@H]1[C@H](O)[C@H](O[C@H]2CC[C@@]3(C=O)[C@H](CC[C@@H]4[C@@H]3CC[C@]3(C)[C@@H](C5=CC(=O)OC5)CC[C@]43O)C2)O[C@@H](C)[C@@H]1O [PERUVOSIDE] | 12
32 | CC(=O)[C@@]1(O)CC[C@H]2[C@@H]3C[C@H](C)C4=CC(=O)C=C[C@]4(C)[C@@]3(F)[C@@H](O)C[C@@]21C [FLUOROMETHOLONE] | 3
33 | CCN1C[C@]2(C)CC[C@H](OC)[C@@]34C1[C@]1(OCO[C@@]15C[C@H](OC)[C@H]1C[C@]3(O)[C@@H]5[C@H]1OC)[C@@H](OC(C)=O)[C@H]24 [DELTALINE] | 22
34 | CC=CC(=O)N(CC)c1ccccc1C (mixture of isomers) [CROTAMITON] | 22
35 | O=C1NC(=O)C(=O)C(=O)N1 [ALLOXAN] | -1.11
36 | Nc1ccc(S(=O)(=O)Nc2ncccn2)cc1 [SULFADIAZINE] | 18
37 | CC(=O)OCC(=O)[C@@]1(O)[C@H](OC(C)=O)C[C@H]2[C@@H]3CCC4=CC(=O)C=C[C@]4(C)[C@@]3(F)[C@@H](O)C[C@@]21C [TRIAMCINOLONE DIACETATE] | 10
38 | Nc1nccs1 [AMINOTHIAZOLE] | -32
39 | CO[C@@]1(NC(=O)CSCC#N)C(=O)N2C(C(=O)O)=C(CSc3nnnn3C)CS[C@@H]21 [CEFMETAZOLE] | 13
40 | CCCCC(=O)Oc1ccccc1C(=O)O [VALERYL SALYCILATE] | 10
41 | Cc1ccnc(NS(=O)(=O)c2ccc(N)cc2)n1 [SULFAMERAZINE] | 3.51
42 | C[C@H]1O[C@@H](O[C@H]2[C@@H](O)C[C@H](O[C@H]3[C@@H](O)C[C@H](O[C@H]4CC[C@@]5(C)[C@H](CC[C@@H]6[C@@H]5C[C@@H](O)[C@]5(C)[C@@H](C7=CC(=O)OC7)CC[C@]65O)C4)O[C@@H]3C)O[C@@H]2C)C[C@H](O)[C@@H]1O [DIGOXIN] | 5.32
43 | S=P(N1CC1)(N1CC1)N1CC1 [THIOTEPA] | 11
44 | CCCCCCNC(=O)n1cc(F)c(=O)[nH]c1=O [CARMOFUR] | 14
45 | Cc1cccc(C)c1N=C1NCCCS1 [XYLAZINE] | -14
46 | NC(=O)N/N=C/c1ccc([N+](=O)[O-])o1 [NITROFURAZONE] | 14
47 | CC[C@H]1[C@@H]2C[C@H]3[C@@H]4N(C)c5ccccc5[C@]45C[C@@H]([C@H]2[C@H]5O)N3[C@@H]1O [AJMALINE] | 23
48 | O=C1C[C@@H]2OCC=C3CN4CC[C@]56c7ccccc7N1[C@H]5[C@H]2[C@H]3C[C@H]46 [STRYCHNINE] | 3
49 | CC(C)C(=O)Nc1ccc([N+](=O)[O-])c(C(F)(F)F)c1 [FLUTAMIDE] | -1.8
50 | CC(C)(S)[C@@H](N)C(=O)O [PENICILLAMINE] | 20
51 | Cn1c(=O)[nH]c(=O)c2[nH]cnc21 [3-METHYLXANTHINE] | 12
52 | C[C@]12CC[C@@H]3c4ccc(O)cc4CC[C@H]3[C@@H]1CCC2=O [ESTRONE] | 1.15
53 | O=C1C(Cl)=C(Cl)C(=O)C(Cl)=C1Cl [CHLORANIL] | 19
54 | CCOC(=O)[C@H](CCc1ccccc1)N[C@@H](C)C(=O)N1CCC[C@H]1C(=O)O | -20
55 | Cc1ccc(C(=O)c2ccc(CC(=O)O)n2C)cc1 [TOLMETIN] | 4
56 | CO[C@@]1(NC(=O)Cc2cccs2)C(=O)N2C(C(=O)O)=C(COC(N)=O)CS[C@@H]21 [CEFOXITIN] | 3.72
57 | CC1CCc2cc(F)cc3c(=O)c(C(=O)O)cn1c23 (stereo not shown) [FLUMEQUINE] | 5
58 | O=C1c2ccccc2C(=O)c2ccccc21 [ANTHRAQUINONE] | 10
59 | CC(C)[C@H](NC(=O)[C@H](Cc1ccc(O)cc1)NC(=O)[C@@H](NC(=O)C(F)(F)F)C(C)C)C(=O)O [Tfa-VAL-TYR-VAL-OH] (Tfa-Val-Tyr-Val-OH) | 7.54
60 | CC1(C)S[C@@H]2[C@H](NC(=O)[C@H](NC(=O)N3CCNC3=O)c3ccccc3)C(=O)N2[C@H]1C(=O)O [AZLOCILLIN] | -4

Same assay, conditions: read-out: inhibition LmjIPCS

Row | Compound | inhibition [%]
61 | CC(C)Cn1c(=O)n(C)c(=O)c2[nH]cnc21 [ISOBUTYLMETHYLXANTHINE] | 14
62 | CCc1ccc(CCOc2ccc(CC3SC(=O)NC3=O)cc2)nc1 (stereo not shown) [PIOGLITAZONE] | 9
63 | COc1ccc2[nH]cc(CCNC(C)=O)c2c1 [MELATONIN] | -5.63
64 | C1CCC(C(CC2CCCCN2)C2CCCCC2)CC1 (stereo not shown) [PERHEXILINE] | 12
65 | CCCC(CCC)C(=O)O [VALPROATE SODIUM] | 0.506
66 | CNC(=C[N+](=O)[O-])NCCSCc1ccc(CN(C)C)o1 [RANITIDINE] | 1.29
67 | COC(=O)[C@H]1[C@H]2C[C@H]3c4[nH]c5ccccc5c4CCN3C[C@H]2CC[C@@H]1O [RAUWOLSCINE] | 12
68 | COC(=O)Nc1nc2ccc(Sc3ccccc3)cc2[nH]1 [FENBENDAZOLE] | 20
69 | NC(=O)N1c2ccccc2CC(=O)c2ccccc21 [OXCARBAZEPINE] | -4
70 | NCCCC[C@H](N[C@@H](CCc1ccccc1)C(=O)O)C(=O)N1CCC[C@H]1C(=O)O [LISINOPRIL] | 6
71 | C[C@]12C=CC(=O)C=C1CC[C@@H]1[C@@H]2C(=O)C[C@@]2(C)[C@H]1CC[C@]2(O)C(=O)CO [PREDNISONE] | -4
72 | CCCCNc1cc(C(=O)O)cc(S(N)(=O)=O)c1Oc1ccccc1 [BUMETANIDE] | 9
73 | Nc1ncnc2c1ncn2[C@@H]1O[C@H](CO)[C@@H](O)[C@@H]1O [VIDARABINE] | 10
74 | Nc1ccn([C@@H]2O[C@H](CO)[C@@H](O)[C@@H]2O)c(=O)n1 [CYTARABINE] | -1.69

Same assay, conditions: screening of NINDS set, sheet Screen 1; read-out: inhibition LmjIPCS

Row | Compound | inhibition [%]
75 | CCCCCCOc1ccccc1C(N)=O [EXALAMIDE] | 8
76 | CCC(C(N)=O)c1ccccc1 (stereo not shown) [FENBUTYRAMIDE] | 9
77 | NC[C@H]1CC[C@H](C(=O)O)CC1 [TRANEXAMIC ACID] | 2.2
78 | CCOC(=O)C(Cc1ccc(O)cc1)NC(C)=O (stereo not shown) [ACETYL TYROSINE ETHYL ESTER] | 3
79 | CCCCN1CCCCC1C(=O)Nc1c(C)cccc1C (stereo not shown) [BUPIVACAINE] | 5.35

— paper PMC7802075 (ACS Infectious Diseases, 2020)
